Experimental data as given in the NIST ThermoML archive (doi:10.1021/acs.jced.6b00640).

Assay: xn = mol fraction of the nth substance listed
Settings: 100 kPa, Liquid; for viscosity: Concentric cylinders viscometry; for mass density: Vibrating tube method

CCOC(=O)CCC(=O)OCC [diethyl butanedioate] + CCCC(=O)OCC
Settings | mass density [kg/m3] | viscosity [mPa·s]
288.15 K, x2 = 0.0999 | 1032.25 | 2.784
288.15 K, x2 = 0.2 | 1018.97 | 2.407
288.15 K, x2 = 0.3003 | 1004.96 | 2.07
288.15 K, x2 = 0.3999 | 990.34 | 1.782
288.15 K, x2 = 0.5 | 974.86 | 1.537
288.15 K, x2 = 0.5997 | 958.7 | 1.334
288.15 K, x2 = 0.7 | 941.56 | 1.162
288.15 K, x2 = 0.7999 | 923.5 | 1.015
288.15 K, x2 = 0.8999 | 904.39 | 0.8744
293.15 K, x2 = 0.0999 | 1027.04 | 2.464
293.15 K, x2 = 0.2 | 1013.76 | 2.146
293.15 K, x2 = 0.3003 | 999.74 | 1.859
293.15 K, x2 = 0.3999 | 985.12 | 1.613
293.15 K, x2 = 0.5 | 969.64 | 1.402
293.15 K, x2 = 0.5997 | 953.46 | 1.225
293.15 K, x2 = 0.7 | 936.32 | 1.077
293.15 K, x2 = 0.7999 | 918.25 | 0.9435
293.15 K, x2 = 0.8999 | 899.13 | 0.8176
298.15 K, x2 = 0.0999 | 1021.84 | 2.202
298.15 K, x2 = 0.2 | 1008.55 | 1.932
298.15 K, x2 = 0.3003 | 994.54 | 1.684
298.15 K, x2 = 0.3999 | 979.9 | 1.471
298.15 K, x2 = 0.5 | 964.41 | 1.286
298.15 K, x2 = 0.5997 | 948.23 | 1.131
298.15 K, x2 = 0.7 | 931.08 | 1.002
298.15 K, x2 = 0.7999 | 913 | 0.8815
298.15 K, x2 = 0.8999 | 893.87 | 0.7679
303.15 K, x2 = 0.0999 | 1016.65 | 1.983
303.15 K, x2 = 0.2 | 1003.35 | 1.749
303.15 K, x2 = 0.3003 | 989.33 | 1.535
303.15 K, x2 = 0.3999 | 974.68 | 1.347
303.15 K, x2 = 0.5 | 959.18 | 1.185
303.15 K, x2 = 0.5997 | 942.99 | 1.048
303.15 K, x2 = 0.7 | 925.83 | 0.9351
303.15 K, x2 = 0.7999 | 907.74 | 0.8255
303.15 K, x2 = 0.8999 | 888.59 | 0.7228
308.15 K, x2 = 0.0999 | 1011.46 | 1.796
308.15 K, x2 = 0.2 | 998.15 | 1.593
308.15 K, x2 = 0.3003 | 984.12 | 1.405
308.15 K, x2 = 0.3999 | 969.46 | 1.239
308.15 K, x2 = 0.5 | 953.96 | 1.096
308.15 K, x2 = 0.5997 | 937.75 | 0.9742
308.15 K, x2 = 0.7 | 920.58 | 0.8745
308.15 K, x2 = 0.7999 | 902.47 | 0.7752
308.15 K, x2 = 0.8999 | 883.31 | 0.6811
313.15 K, x2 = 0.0999 | 1006.27 | 1.642
313.15 K, x2 = 0.2 | 992.95 | 1.465
313.15 K, x2 = 0.3003 | 978.91 | 1.297
313.15 K, x2 = 0.3999 | 964.25 | 1.149
313.15 K, x2 = 0.5 | 948.72 | 1.019
313.15 K, x2 = 0.5997 | 932.5 | 0.91
313.15 K, x2 = 0.7 | 915.31 | 0.8216
313.15 K, x2 = 0.7999 | 897.18 | 0.731
313.15 K, x2 = 0.8999 | 878 | 0.6451
318.15 K, x2 = 0.0999 | 1001.09 | 1.5
318.15 K, x2 = 0.2 | 987.76 | 1.341
318.15 K, x2 = 0.3003 | 973.7 | 1.193
318.15 K, x2 = 0.3999 | 959.02 | 1.061
318.15 K, x2 = 0.5 | 943.48 | 0.9464
318.15 K, x2 = 0.5997 | 927.25 | 0.8492
318.15 K, x2 = 0.7 | 910.04 | 0.7706
318.15 K, x2 = 0.7999 | 891.89 | 0.6883
318.15 K, x2 = 0.8999 | 872.69 | 0.6086
323.15 K, x2 = 0.0999 | 995.9 | 1.384
323.15 K, x2 = 0.2 | 982.56 | 1.245
323.15 K, x2 = 0.3003 | 968.49 | 1.113
323.15 K, x2 = 0.3999 | 953.79 | 0.9951
323.15 K, x2 = 0.5 | 938.24 | 0.8916
323.15 K, x2 = 0.5997 | 921.98 | 0.7992
323.15 K, x2 = 0.7 | 904.75 | 0.7302
323.15 K, x2 = 0.7999 | 886.58 | 0.6542
323.15 K, x2 = 0.8999 | 867.36 | 0.5785
